# US20090123565A9, “Copper-dependent non-traditional pro-inflammatory cytokine export and methods, compositions and kits relating thereto” (Maine Medical Center Research Institute, priority 2001, published 2009)
# Starred links: 1 amine or outer side, 2 acyl side, 3 side chain; linkers in the order of their positions; H or OH if unused. Positions of bridges follow the written chain, without caps; N, C: chain ends. Non-standard residues stand in square brackets, D forms with d. Residues, ends and D or L forms follow the SMILES beside them. Chains are numbered I, II in the order given. Actinocin(9to1) = Cc1c2oc3c(C)ccc(C(=O)[*:1])c3nc-2c(C(=O)[*:2])c(N)c1=O; NMeV = CN[C@H](C(=O)O)C(C)C; Sar = CNCC(=O)O
# Test system: IL1α release from NIH 3T3 cell transfectants
# Assay: Heat shock-induced release of IL1α from NIH 3T3 cell transfectants (immunoblot of conditioned media)
# Assay type: cell-based, human
# Conditions: actinomycin D 10 μg/ml
# Protocol: FIG. 5, comprising FIGS. 5A and 5B, depict the involvement of Cu^2+ in IL1α release. FIG. 5A is an image depicting results obtained using NIH 3T3 cells stably transfected with mIL1α-βGal. The cells were incubated for 18 hours at 37 C in the absence and presence of the Cu^2+ chelator, tetrathiomolybdate (TTM) as indicated and the untreated and treated cells either maintained at 37 C or subjected to heat shock as described in FIG. 3. The conditioned medium was evaluated for IL1α-βGal release by IL1α immunoblot analysis, and cell lysates from TTM-treated cells were used to monitor the intracellular level of IL1α-βGal expression. […] FIG. 5B is an image depicting release of IL1α-βGal in myc-S100A13 and IL1α-βGal NIH 3T3 cell cotransfectants and in insert-less vector and mIL1α-βGal NIH 3T3 cell transfectants in the presence and absence actinomycin D (10 μg/ml), as indicated, in response to heat shock. Conditioned media were processed and evaluated for IL1α-βGal immunoblot analysis as described in Tarantini et al. (2001).
# Stable NIH 3T3 cell transfectants were generated accordingly with the following cDNA constructs cloned into pMEXneo (Tarantini, et al. 2001; Tarantini, et al. 1995; Tarantini, et al. 1998; LaVallee, et al. 1998; Carreira, et al. 1998; Landriscina, et al., 2001): human S100A13 with an amino-terminal fusion to a 6 Myc Tag (Myc-S100A13) (Landriscina, et al., 2001); human Myc-S100A13ΔBR (Landriscina, et al., 2001); human mIL1α (residues 113-271); human mIL1α with a carboxy-terminal fusion to a βGalactosidase tag (mIL1α-βGal) (Tarantini, et al. 2001); and pIL1α (residues 1-271) with a carboxy-terminal fusion to βGalactosidase (pIL1α-βGal) (Tarantini, et al. 2001). Recombinant human mIL1α was provided by Hoffmann-LaRoche. Recombinant human S100A13, as well as S100A13ΔBR, a S100A13 construct with the basic residue rich domain (residues 88 to 98) deleted, were generated as previously described (Landriscina, et al., 2001).
# NIH 3T3 cell transfectants were grown to 70-80% confluency and prior to temperature stress, the cells were washed with serum-free DMEM. The heat shock was performed as previously described (Tarantini et al., 1995) in serum-free DMEM for 110 min at 42° C. Control cultures were incubated at 37° C. in serum-free DMEM. […] Immunoprecipitated and eluted proteins were resolved by 8% and 12% acrylamide SDS-PAGE, respectively, and evaluated by either IL1α (Tarantini, et al. 2001) or Myc (Landriscina, et al., 2001) immunoblot analysis. […] The effects of actinomycin D (Sigma Chemical Co., St. Louis, Mo.), cyclohexamide (Sigma) and tetrathiomolybdate (Sigma-Aldrich) on IL1α release were evaluated as previously reported (LaVallee et al., 1998).
compound,measurement,setting,value
"Cc1c2oc3c(C)ccc(C(=O)N[C@@H]4C(=O)N[C@H](C(C)C)C(=O)N5CCC[C@H]5C(=O)N(C)CC(=O)N(C)[C@@H](C(C)C)C(=O)O[C@@H]4C)c3nc-2c(C(=O)N[C@@H]2C(=O)N[C@H](C(C)C)C(=O)N3CCC[C@H]3C(=O)N(C)CC(=O)N(C)[C@@H](C(C)C)C(=O)O[C@@H]2C)c(N)c1=O [actinomycin D] (I: T[dV]P[Sar][NMeV] / II: T[dV]P[Sar][NMeV]; ester I:1-I:C, II:1-II:C; linker I:N-II:N via Actinocin(9to1))",repression of export of IL1α-βGal in response to heat shock,Myc-S100A13 and IL1α-βGal NIH 3T3 cell cotransfectants,unable to repress
same,repression of release of IL1α-βGal in response to heat shock,insert-less vector and IL1α-βGal NIH 3T3 cell cotransfectants,able to repress
